This note sets out measurements from patent publication US10800789B2, “Antiviral compounds” (Gilead Pharmasset LLC, priority 2012, dated 2020).

Like-named read-outs stand apart in the source and are kept apart here.

A short description of data set [1]: IV and PO single dose pharmacokinetic studies in SD rats. Type of data set: in vivo, male Sprague-Dawley (SD) rats. Conditions: Sprague-Dawley, rat, plasma, male SD rats, PO 2 mg/kg vs IV infusion 1 mg/kg, read-out: Rat % F. On the procedure: IV and PO Single Dose Pharmacokinetic Studies in SD Rats:
The pharmacokinetics of selected compounds was characterized in male Sprague-Dawley (SD) rats (250-300g). In this study, two groups of naïve purebred SD rats (N=3 per group, fasted over night) received the selected compound either as an intravenous (IV) infusion (1 mg/kg over 30 minutes) via the jugular vein or by oral gavage (2 mg/kg). The intravenous (IV) dosing vehicle was 5% ethanol, 35% polyethylene glycol 400 (PEG 400) and 60% water pH 2.0. The oral dosing vehicle was 5% ethanol, 55% PEG 400 and 40% citrate buffer pH 2.2.
Serial blood samples (approximately 0.3 mL each) were collected from jugular vein or other suitable vein at specified time points. For the IV infusion group, the blood samples were collected predose and at 0.25, 0.48, 0.58, 0.75, 1.5, 3, 6, 8, 12 and 24 hours after the start of infusion. For the oral group, the blood samples were collected predose and at 0.25, 0.50, 1, 2, 4, 6, 8, 12 and 24 hours after dosing. The blood samples were collected into VacutainerγM tubes containing EDTA-K3 as the anti-coagulant and were centrifuged at approximately 4° C. to obtain plasma. The plasma samples were stored at −20° C. until analysis by LC/MS/MS.
A bioanalytical method utilizing high performance liquid chromatography coupled to tandem mass spectrometry (LC/MS/MS) was developed for analysis of the selected compound in rat plasma. Detection was performed using selected reaction monitoring (SRM); Ions representing the precursor (M+H)^+ species was selected in quadrupole 1 (Q1) and collided with argon gas in the collision cell (Q2) to generate specific product ion, which was subsequently monitored by quadrupole 3 (Q3). Standard curve and quality control samples were prepared in male rat plasma and processed in the same way as the test samples to generate quantitative data.
Pharmacokinetic parameters were generated using non-compartmental pharmacokinetic analysis (Phoenix WinNonlin, version 6.3). Values below the lower limit of quantification (LLOQ) were assigned a value of zero if predose and treated as missing thereafter. Area under the curve (AUC) was calculated using the linear trapezoidal rule. The oral bioavailability (% F) was determined by comparison of the area under the curve (AUC) of the compound and/or a metabolite generated in plasma following oral administration to that generated following intravenous administration.

Data set [2] has as its system stable HCV 1b RLuc replicon cells (dicistronic genotype 1b Con1 replicon). Put plainly: Renilla luciferase HCV replicon reporter assay, genotype 1b. Type of data set: cell-based. The following applies: Hepatitis C virus, 72 h, stable 1b Con1 RLuc replicon cells, 72 hours; read-out: 1b. Summed up: (§1)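 Cells carrying the stable or transiently transfected (Huh-Lunet) dicistronic RLuc replicons received 3-fold serial compound dilutions from 10 mM DMSO stocks. After 72 h, cells were lysed and Renilla luciferase read. DMSO served as the no-inhibition control and ITMN-191 above 100×EC50 as the positive control; EC50 by non-linear regression.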
Background: A replicon is a self-replicating genome or part of one, used to study replication in cells.

The test system of data set [3] is NS5A chimeric genotype 1b Con1 replicon with genotype 3a S52 strain NS5A gene. The data set is described as follows: Replicon assay, genotype 3a NS5A chimera. Type of data set: cell-based, HCV. The following applies: Hepatitis C virus.
Data set [4] has as its system Q30R in genotype 1a NS5A (1a Pi-Rluc replicon, Huh-7-derived cured-51 cells). The data set is described as follows: Replicon assay against resistance mutant 1a Q30R. Type of data set: cell-based, HCV. The following applies: Hepatitis C virus. The method in brief: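 Q30R introduced by site-directed mutagenesis into the 1a Pi-RLuc replicon; replicon RNA transiently transfected into cured-51 cells. Cells treated with 3-fold serially diluted compound for 72 h, then lysed and Renilla luciferase measured; EC50 by non-linear regression.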

The test system of data set [5] is stable HCV 1a RLuc replicon cells (dicistronic genotype 1a H77 replicon). The data set is described as follows: Renilla luciferase HCV replicon reporter assay, genotype 1a. Type of data set: cell-based. Conditions: Hepatitis C virus, 72 h, stable 1a H77 RLuc replicon cells. Summed up:
as §1

The test system of data set [6] is stable HCV 2a JFH-1 Rluc replicon cells (L31 present in NS5A). The data set is described as follows: Renilla luciferase HCV replicon reporter assay, genotype 2a JFH-1. The following applies: Hepatitis C virus. Type of data set: cell-based. Summed up:
as §1

Data set [7] relates to NS5A chimeric genotype 2a JFH-1 replicon with genotype 2b MD2b-1 strain NS5A gene (M31 present). The data set is described as follows: Replicon assay, genotype 2b NS5A chimera. Type of data set: cell-based, HCV. The following applies: Hepatitis C virus. The method in brief:
as §1

Data set [8] has as its system NS5A chimeric genotype 1b Con1 replicon with genotype 4a ED43 strain NS5A gene. The data set is described as follows: Replicon assay, genotype 4a NS5A chimera. Type of data set: cell-based, HCV. The following applies: Hepatitis C virus.
Data set [9] relates to NS5A chimeric genotype 2a JFH-1 replicon with genotype 2a J6 strain NS5A gene (M31 present). The data set is described as follows: Replicon assay, genotype 2a J6 NS5A chimera. Conditions: Hepatitis C virus. Type of data set: cell-based, HCV. The method in brief:
as §1

The mark [10] stands for this setting: read-out: 3a (s) (nM), genotype 3a NS5A chimeric replicon, stable replicon cells (s).
[11] abbreviates: read-out: 3a (s), (s), activity range.
Setting [12] is: read-out: 2a JFH (nM), genotype 2a JFH-1 replicon (L31 in NS5A), stable cells.
[13] abbreviates: read-out: 2a JFH, stable 2a JFH-1 Rluc replicon cells, L31 in NS5A, activity range.
The mark [14] stands for this setting: 2BS, read-out: 2b (s), stably replicating replicon cells (s), activity range.
Setting [15] is: read-out: 2b (s) (nM), genotype 2b MD2b-1 NS5A chimeric replicon (M31), stably replicating replicon cells (s).
The mark [16] stands for this setting: read-out: 4a (s) (nM), genotype 4a NS5A chimeric replicon, stable replicon cells (s).
Where [17] appears, read: read-out: 4a (s), (s), activity range.
The mark [18] stands for this setting: read-out: 2a J6 (s) (nM), genotype 2a J6 NS5A chimeric replicon (M31), stably replicating replicon cells (s).
The mark [19] stands for this setting: read-out: 2a J6 (s), stably replicating replicon cells (s), activity range.

For the compound `CC[C@H]1CC[C@@H](c2ncc(-c3ccc4c(c3)COc3cc5c(ccc6nc([C@@H]7CC[C@H](C)N7C(=O)[C@@H](NC(=O)OC)C7CCOCC7)[nH]c65)cc3-4)[nH]2)N1C(=O)[C@@H](NC(=O)OC)C(C)C` [EN, methyl[(1 S)-2-[(2S,5S)-2-(9-{2-[(2S,5S)-5-ethyl-1-{(2S)-2 [(methoxycarbonyl)amino]-3-methylbutanoyl}pyrrolidin-2-yl]-1H-imidazol-5-yl}-1,11 dihydroisochromeno[4′,3′:6,7]naphtho[1,2-d]imidazol-2-yl)-5-methylpyrrolidin-1-yl]-2-oxo-1(tetrahydro-2H-pyran-4-yl)ethyl]carbamate], the bioavailability in data set [1] amounted to 29.9%. The EC50 in data set [2] is 0.034 nM; in data set [3] (setting [10]) it was 0.061 nM; in data set [3] (setting [11]) it was under 0.1 nM; in data set [4] (read-out: 1a Q30R), under 0.1 nM; in data set [4] (read-out: 1a Q30R (nM)), 0.043 nM; in data set [5] it was 0.018 nM. Moreover, the EC50 was under 0.1 nM in data set [5] (activity range); 0.015 nM in data set [6] (setting [12]); under 0.1 nM in data set [6] (setting [13]); under 0.1 nM in data set [7] (setting [14]); 0.095 nM in [7] (setting [15]); 0.052 nM in data set [7] (read-out: 2b (t) (nM), genotype 2b MD2b-1 NS5A chimeric replicon (M31), transiently transfected (t)). Besides, in [7] (read-out: 2b (t), transiently transfected (t) into Huh-Lunet cells, activity range), the EC50 was under 0.1 nM.

Turning to `COC(=O)N[C@H](C(=O)N1[C@@H](C)CC[C@H]1c1ncc(-c2ccc3c(c2)COc2cc4c(ccc5nc([C@@H]6C[C@H](COC(F)F)CN6C(=O)[C@@H](NC(=O)OC)[C@@H](C)OC)[nH]c54)cc2-3)[nH]1)C(C)C` [FO], the EC50 is 0.007 nM in data set [8] (setting [16]); under 0.1 nM in data set [8] (setting [17]); 0.009 nM in data set [2]; 0.055 nM in [3] (setting [10]); under 0.1 nM in data set [3] (setting [11]); 0.1 to 0.999 nM in [4] (read-out: 1a Q30R). Also, the EC50 in [4] (read-out: 1a Q30R (nM)) is 0.112 nM; in data set [5] it was 0.01 nM; in [5] (activity range), under 0.1 nM; in data set [6] (setting [12]) it was 0.008 nM; in data set [6] (setting [13]), under 0.1 nM; in data set [7] (setting [14]) it was 0.1 to 0.999 nM. Further, the EC50 in [7] (setting [15]) amounted to 0.164 nM. In data set [1], the bioavailability came to 17.2%.

Consider `CC[C@H](C)[C@H](NC(=O)OC)C(=O)N1[C@@H](C)CC[C@H]1c1nc2ccc3cc4c(cc3c2[nH]1)OCc1cc(-c2cnc([C@@H]3CC[C@H](C)N3C(=O)[C@@H](NC(=O)OC)C3CCOCC3)[nH]2)ccc1-4` [FQ, Methyl [(1 S)-2-[(2S,5S)-2-(5-{2-[(2S,5S)-1-{(2S,3S)-2-[(methoxycarbonyl)amino]-3-methylpentanoyl}-5-methylpyrrolidin-2-yl]-1,11-dihydroisochromeno[4′,3′:6,7]naphtho[1,2-d]imidazol-9-yl}-1H-imidazol-2-yl)-5-methylpyrrolidin-1-yl]-2-oxo-1-(tetrahydro-2H-pyran-4-yl)ethyl]carbamate], for which the bioavailability in data set [1] was found to be 17.7%. In addition, the EC50 in data set [2] is 0.019 nM; in data set [3] (setting [10]), 0.02 nM; in data set [3] (setting [11]), under 0.1 nM; in data set [4] (read-out: 1a Q30R), under 0.1 nM; in data set [4] (read-out: 1a Q30R (nM)), 0.097 nM; in [5] it was 0.012 nM. In addition, the EC50 in [5] (activity range) is under 0.1 nM; in data set [6] (setting [12]) it was 0.01 nM; in data set [6] (setting [13]), under 0.1 nM; in [7] (setting [14]) it was under 0.1 nM; in [7] (setting [15]), 0.066 nM.

For `CC[C@H](C)[C@H](NC(=O)OC)C(=O)N1[C@@H](C)CC[C@H]1c1ncc(-c2ccc3c(c2)COc2cc4c(ccc5nc([C@@H]6C[C@@H]7CCC[C@@H]7N6C(=O)[C@@H](NC(=O)OC)C6CCOCC6)[nH]c54)cc2-3)[nH]1` [IP], the EC50 in [8] (setting [16]) was 0.027 nM; in data set [8] (setting [17]), under 0.1 nM; in [9] (read-out: 2a J6 (t) (nM), genotype 2a J6 NS5A chimeric replicon (M31), transiently transfected (t) into Huh-Lunet cells) it was 0.041 nM; in data set [9] (read-out: 2a J6 (t), transiently transfected (t) into Huh-Lunet cells, activity range), under 0.1 nM; in data set [2], 0.029 nM; in data set [3] (setting [10]), 0.067 nM. The EC50 in data set [3] (setting [11]) is under 0.1 nM; in [5], 0.025 nM; in data set [5] (activity range), under 0.1 nM; in data set [6] (setting [12]), 0.033 nM; in data set [6] (setting [13]), under 0.1 nM; in data set [7] (setting [14]), under 0.1 nM. Besides, the EC50 in data set [7] (setting [15]) worked out at 0.074 nM. Moreover, the bioavailability in [1] worked out at 18.9%.

With `COC(=O)N[C@H](C(=O)N1[C@H](c2ncc(-c3ccc4c(c3)COc3cc5c(ccc6nc([C@@H]7C[C@@H]8CCC[C@@H]8N7C(=O)[C@@H](NC(=O)OC)C7CCOCC7)[nH]c65)cc3-4)[nH]2)C[C@@H]2CCC[C@@H]21)C(C)C` [IT], the EC50 is 0.004 nM in [8] (setting [16]); under 0.1 nM in data set [8] (setting [17]); 0.007 nM in [9] (setting [18]); under 0.1 nM in data set [9] (setting [19]); 0.017 nM in data set [2]; 0.032 nM in [3] (setting [10]). Also, the EC50 in [3] (setting [11]) is under 0.1 nM; in [5] it was 0.012 nM; in [5] (activity range) it was under 0.1 nM; in data set [6] (setting [12]) it was 0.017 nM; in [6] (setting [13]), under 0.1 nM; in data set [7] (setting [14]), under 0.1 nM. In data set [7] (setting [15]), the EC50 was 0.064 nM. Moreover, the bioavailability in data set [1] came to 16.2%.

With `CC[C@H]1CC[C@@H](c2nc3ccc4cc5c(cc4c3[nH]2)OCc2cc(-c3cnc([C@@H]4C[C@@H]6CCC[C@@H]6N4C(=O)[C@@H](NC(=O)OC)C(C)C)[nH]3)ccc2-5)N1C(=O)[C@@H](NC(=O)OC)C1CCOCC1` [IU], the EC50 in data set [8] (setting [16]) was 0.004 nM; in [8] (setting [17]) it was under 0.1 nM; in data set [9] (setting [18]), 0.028 nM; in data set [9] (setting [19]), under 0.1 nM; in data set [2], 0.022 nM; in [3] (setting [10]), 0.098 nM. Moreover, the EC50 in data set [3] (setting [11]) was under 0.1 nM; in data set [5], 0.016 nM; in data set [5] (activity range), under 0.1 nM; in data set [6] (setting [12]), 0.02 nM; in data set [6] (setting [13]), under 0.1 nM; in [7] (setting [14]), 0.1 to 0.999 nM. Further, the EC50 in data set [7] (setting [15]) was found to be 0.119 nM. In addition, the bioavailability in data set [1] is 26.5%.
